Biological target: T1, α-amylase
T1 construct: PDB 4W93 was used for docking only
Test: iodine-starch absorbance assay, […] nm
Assay type: biochemical
Details: soluble starch substrate, 0.1 M sodium phosphate buffer, 37 °C, 15 min preincubation; read-out: α-Amylase inhibition activity IC50 (μg/mL) / Pahang (PFP)

Compound `COc1cc2ccc(=O)oc2cc1O` [compound 1, scopoletin] has an IC50 of 52 ± 130 nM.
